{"source": "patent US8686224B2", "about": "“Plant defense signal peptides” (priority 2005, dated 2014)", "system": "PDF1.2 and PR-1 gene expression", "assay": "Spraying of four-week-old soil-grown plants, qRT-PCR of PDF1.2 and PR-1", "assay_type": "in vivo, Arabidopsis thaliana", "from_the_text": "[…]1 and […]2 mutants are unable to respond to AtPEP1. To further examine the importance of […]1 and […]2 in AtPep1 signaling, the expression level of WRKY transcription factor genes, WRKY22, WRKY29, WRKY33. WRKY53 and WRKY55, were monitored by qRT-PCR after supplying AtPep1 to wild type Arabidopsis and T-DNA insertional mutants of […]1 and […]2. These WRKY genes were reported to be induced by the fungal PAMP, chitin (Wan et al., Plant Cell 20: 471-481, 2008), and the bacterial PAMPs, […] et al., Cell 125:749-760, 2006). […] In the double mutants, […] […] We also examined the effect of supplying AtPep1 to the double mutants on the expression of the antimicrobial protein genes, defensin (PDF1.2) and pathogenesis related protein (PR-1) […] peptides are known to induced these genes (Huffaker and Ryan, Proc. Natl. Acad. Sci. USA 104: 10732-10736, 2007). Since the expression levels of PDF1.2 and PR-1 gene in Arabidopsis seedlings grown in liquid medium were already high, the method of supplying AtPep1 was changed. Four-week-old Arabidopsis plants grown in soil were sprayed with 1 μM AtPep1 in 0.01% Silwet L-77, and subjected to qRT-PCR analysis after 6 hours.", "key": {"[1]": {"conditions": "sprayed 1 μM in 0.01% Silwet L-77, 6 hours, wild type"}}}
{"substance": "H-ATKVKAKQRGKEKVSSGRPGQHN-OH [AtPep1]", "values": [{"measurement": "induction of PDF1.2", "setting": "[1]", "result": 30, "unit": "fold"}, {"measurement": "induction of PR-1", "setting": "[1]", "result": 60, "unit": "fold"}, {"measurement": "induction of PDF1.2 and PR-1 in the double mutants", "setting": "sprayed 1 μM, 6 hours", "result": "not induced"}]}
